Read-outs that look alike come from different tables or passages of the source.
Columns and labels:
[1] = test system: primary human mesenchymal stem cells (hMSCs); test: Tenocyte differentiation screening in hMSCs (SCXA-positive cells, 4 days); format: cell-based; details: 96 h, fold change over DMSO
Method in brief: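 Primary hMSCs at passage 3–6 were treated with compound, fixed and immunostained for SCXA, and SCXA-positive cells per well were counted by imaging. Counts were normalized to DMSO wells as fold change, averaged over triplicates, and EC50 was fitted, with high-dose values manually corrected for solubility.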

[2] = test system: Wnt responsive promoter linked to luciferase gene in SW480 cells; test: Wnt Reporter Assay, SW480, 48 hours (Example 10); format: cell-based; details: Homo sapiens, 10-0.0003 μM, read-out: EC50, inhibition of Wnt pathway activity
Method: SW480 cells (ATCC) were cultured in Dulbecco's modified Eagle's medium (DMEM, ThermoFisher) with 1% Glutamax (Life Technologies), 1% Penicillin-Streptomycin (Life Technologies), 150 ug/ml Hygromycin (Life Technologies) with 10% fetal bovine serum (FBS) (Hyclone) at 37° C., 5% CO2.
Wnt Reporter Assay. Human colorectal cancer cell line SW480, stably expressing the Wnt responsive promoter linked to luciferase gene, was plated overnight at 4×10e^4 cells/well in DMEM, high glucose, no glutamine, no phenol red (Life Technologies), 1% Glutamax (Life Technologies), 1% Sodium Pyruvate (Life Technologies), 1% Penicillin-Streptomycin (Life Technologies) with 1% Fetal Bovine Serum (Hyclone). Cells were then treated with DMSO (vehicle control) or COMPOUND 175 at 10 μM top concentration and half a log dilution up to 10 concentrations (10, 3, 1, 0.3, 0.1, 0.03, 0.01, 0.003, 0.001 and 0.0003 μM). Cells were incubated for 48 hours at 37° C. 15 μl of Bright-Glo (Bright-Glo™ Luciferase Assay System, Promega) was added to the cells and luminescence was measured using the Cytation 3 plate reader (Biotek). Data was normalized using the DMSO control and inhibition profile and EC50 was calculated using Prism 4 (GraphPad Software Inc, La Jolla, Calif., USA). Prism 4.0 was used to calculate the EC50 of the Wnt reporter inhibition assay.

[3] = Pharmacokinetics after single topical application in rats (plasma, tendon, skin); format: in vivo, rat; details: for AUC(0-t) / Cmax / Tmax: topical or ocular; for Kp: tendon and plasma
Method: The compound 175 formulation was applied once topically to each ankle of the hind leg of each animal at 60 μL volume (30 μL/cm^2×2 cm^2) over the area of the Achilles tendon.
Blood samples (˜0.5 mL) were collected via cardiac puncture, into tubes containing K2EDTA as anticoagulant, at 1, 2, 4, 7 and 24 hours post-dose from 2 animals per timepoint (n=2). Plasma was harvested and frozen at −80° C. for bioanalysis.
The Achilles tendons from both ankles were collected following euthanasia at 1, 2, 4, 7 and 24 hours post-dose from 2 animals per timepoint (n=4) from all groups. Skin tissue samples were collected from the dose-site at 7 and 24 hours post-dose from 2 animals per timepoint (n=4) in Group 2. Tissues were frozen at −80° C. for bioanalysis. Blood and tissue collection schedule is outlined in Table 8 below.
Skin tissue samples were processed using the following procedures: 1) Weigh tissue and homogenize using cryoPrep (Covaris); 2) Add 9× volume of Acetonitrile:Methanol (70:30) and vortex for one hour; 3) Aliquot 100 μL of tissue homogenate into 96 microtube polypropylene plate; 4) Add 10 μL of working standard to each standard; 5) Add 10 μL of methanol in all samples and blanks; 6) Add 10 μL of internal standard (IS) to all tubes except blanks; 7) Spin in centrifuge at 3000 rpm for 10 minutes; and 8) Transfer 100 μL of supernatant into 96-well plate containing 150 μL of water. Cap and vortex for LC/MS/MS analysis.
The chromatograms of the samples were integrated and calibrated using Analyst 1.6.2 (AB Sciex, Redwood City, Calif.). Linear regression with 1/x^2 weighting and internal standardization was used for standard calibration, with an acceptance criterion of ±30% of nominal standard concentration. The lower limit of quantitation (LLOQ) was 2.00 ng/mL (plasma), 6.00 ng/g (tendon) and 25.0 ng/g (skin). Pharmacokinetic parameters were estimated by noncompartmental analysis from individual concentration versus time profiles using Pheonix WinNonlin version 6.3 (Certara, Inc., Princeton, N.J.). The time to maximum concentration (tmax) and the maximum concentration (Cmax) were determined based on measured plasma and tissue concentrations. The area under the curve (AUC0-last) was calculated using the linear trapezoidal rule.

[4] = Tendon, Group 1, 1 mg/mL, 1% BA, single topical
[5] = Tendon, Group 2, 10 mg/mL, 1% BA, single topical
[6] = Tendon, Group 3, 10 mg/mL, no preservative (0.5% Tween 80), single topical
[7] = male, Sprague Dawley, rat, plasma, 1 mg/mL, Plasma, Group 1, 1 mg/mL, 1% BA, single topical
[8] = male, Sprague Dawley, rat, plasma, 10 mg/mL, Plasma, Group 2, 10 mg/mL, 1% BA, single topical
[9] = male, Sprague Dawley, rat, plasma, 10 mg/mL, Plasma, Group 3, 10 mg/mL, no preservative (0.5% Tween 80), single topical
[10] = male, Sprague Dawley, rat, tendon, 1 mg/mL, Tendon, Group 1, 1 mg/mL, 1% BA, single topical
[11] = male, Sprague Dawley, rat, tendon, 10 mg/mL, Tendon, Group 2, 10 mg/mL, 1% BA, single topical
[12] = male, Sprague Dawley, rat, tendon, 10 mg/mL, Tendon, Group 3, 10 mg/mL, no preservative (0.5% Tween 80), single topical

- EC50 [1]: 10.4 µM
- EC50 [2]: 153 nM
- plasma exposure of Group 3 relative to Group 2 ([3]; 10 mg/mL without BA (Tween 80) vs 10 mg/mL with BA): ~0.2 ×
- tendon exposure of Group 3 relative to Group 2 ([3]; 10 mg/mL without BA vs 10 mg/mL with BA): ~4 ×
- skin concentration relative to tendon concentrations ([3]; 7 and 24 hours post-dose, Group 2): roughly 1000 ×
- increase in tendon AUC(0-last) for a 10× dose-increment ([3]; Group 2 vs Group 1, formulations containing BA): 3.4 ×
- last ([3]; Plasma, Group 1, 1 mg/mL, 1% BA, single topical): 1.00 h
- last ([3]; Plasma, Group 2, 10 mg/mL, 1% BA, single topical): 7.00 h
- last ([3]; Plasma, Group 3, 10 mg/mL, no preservative (0.5% Tween 80), single topical): 7.00 h
- last ([3]; Skin, Group 2, 10 mg/mL, 1% BA, single topical): 24.0 h
- AUC(0-last) [3, 4]: 2164 ng·h/g
- last [3, 4]: 24.0 h
- AUC(0-last) [3, 5]: 7270 ng·h/g
- last [3, 5]: 24.0 h
- AUC(0-last) [3, 6]: 28077 ng·h/g
- last [3, 6]: 24.0 h
- AUC(0-t) [3, 7]: 0.65 ng·h/mL
- Cmax [3, 7]: 1.3 ng/mL
- Tmax [3, 7]: 1 h
- AUC(0-t) [3, 8]: 36.1 ng·h/mL
- Cmax [3, 8]: 10.6 ng/mL
- Tmax [3, 8]: 4 h
- AUC(0-t) [3, 9]: 6.79 ng·h/mL
- Cmax [3, 9]: 1.94 ng/mL
- Tmax [3, 9]: 7 h
- Tmax ([3]; male, Sprague Dawley, rat, skin, 10 mg/mL, Skin, Group 2, 10 mg/mL, 1% BA, single topical): 7 h
- Cmax ([3]; male, Sprague Dawley, rat, skin, 10 mg/mL, Skin, Group 2, 10 mg/mL, 1% BA, above quantitation limit (AQL > 25000 ng/g), reported as estimated): 209000 ng/g
- concentration at 7 h ([3]; male, Sprague Dawley, rat, skin, topical, 7 hours post-dose, Group 2, 10 mg/mL containing BA, above quantitation limit, estimated): 209000 ng/g
- concentration at 24 h ([3]; male, Sprague Dawley, rat, skin, topical, 24 hours post-dose, Group 2, 10 mg/mL containing BA, above quantitation limit, estimated): 113000 ng/g
- Kp ([3]; male, Sprague Dawley, rat, topical, 1 mg/mL, Tendon to plasma, Group 1, 1 mg/mL, 1% BA, read-out: Tissue/Plasma AUC Ratio): 3330
- Kp ([3]; male, Sprague Dawley, rat, topical, 10 mg/mL, Tendon to plasma, Group 2, 10 mg/mL, 1% BA, read-out: Tissue/Plasma AUC Ratio): 202
- Kp ([3]; male, Sprague Dawley, rat, topical, 10 mg/mL, Tendon to plasma, Group 3, 10 mg/mL without BA, read-out: Tissue/Plasma AUC Ratio): 4140
- Kp ([3]; male, Sprague Dawley, rat, topical, all dose groups, single topical administration, read-out: tendon to plasma ratios, range across groups): 202 to 4140
- Cmax [3, 10]: 519 ng/g
- Tmax [3, 10]: 1 h
- Cmax [3, 11]: 1930 ng/g
- Tmax [3, 11]: 1 h
- Cmax [3, 12]: 7050 ng/g
- Tmax [3, 12]: 1 h
Compound: COc1ccc(NC(=O)c2n[nH]c3ccc(-c4cncc(CN5CCCCC5)c4)cc23)cn1 [compound 175, N-(6-Methoxypyridin-3-yl)-5-(5-(piperidin-1-ylmethyl)pyridin-3-yl)-1H-indazole-3-carboxamide]
